What was measured:
[1] = cited from earlier work
[2] = target: CpLIP2 lipase (Candida parapsilosis, UniProt Q8NIN8); assay: Quenching of CpLIP2 intrinsic tryptophan fluorescence by flavonols (Stern–Volmer, Lehrer, van't Hoff analysis); format: binding; conditions: for KSV (Stern–Volmer quenching constant): CpLIP2 2.5 µM, pH 7.0, flavonol 2.5–25 µM (GAL 2.5–17.5 µM); for Kq (bimolecular quenching constant): Kq = KSV/τ0, τ0 1.59 ns; for KSV (accessible), Stern–Volmer quenching constant of the exposed W residues / fa (fraction of accessible W residues to the quencher): Lehrer equation; for ΔG (free energy change): ΔG = ΔH − TΔS; for Kd: Kd (dissociation constant); for order of magnitude of Kq: all temperatures of Table 1; for ΔS (entropy changes): van't Hoff plot, 298–328 K
Description: The fluorescence quenching spectra of CpLIP2 lipase submitted to increasing concentrations of GAL, KAE, QUE and MYR are shown in Figure 3. A remarkable quenching of the CpLIP2 fluorescence emission was observed. […] The fluorescence quenching is usually described by the linear Stern–Volmer Equations (2) and (3):(2) F0/F = 1 + Ksv [Q] = 1 + Kqτ0 [Q] (3) Kq=Ksv/τ0 where F0 and F are the intrinsic fluorescence intensities of CpLIP2 lipase (fluorophore) in absence or presence of quencher (flavonol), respectively. Kq is the bimolecular quenching constant, τ0 is the lifetime of the fluorophore in the absence of the quencher, [Q] is the concentration of the quencher, and KSV is the Stern–Volmer quenching constant.
The mechanism of quenching, occurring between CpLIP2 lipase and flavonols, was characterized by determining the values of Kq and the thermodynamic parameters by varying the temperature. […] In both cases, the bimolecular quenching constant Kq can be calculated by the ratio between KSV and τ0, itself determined at 1.59 ns for Human Pancreatic Lipase.
The inaccessible or buried residues are responsible for the remaining fluorescence, which is probably independent of the quencher concentration. […] An up-down curvature towards the x-axis has been shown for the four flavonols (Figure 4), indicating the presence of two populations of fluorophores, part of which would not be accessible. That means that some W residues are buried inside the lipase structure and that other residues are exposed to the solvent. Therefore, data were analyzed through the Lehrer equation, also known as the modified (or non-linear) Stern–Volmer Equation (4):(4) F0/ F0−F = 1/ fa Ksv 1/ [Q] +1/ fa
For static quenching, the equilibrium between free and bound CpLIP2 lipase, when the ligand molecules bind independently to equivalent sites of macromolecules, can be described by the following Equation (5):(5) log10F0−F/F=nlog10[Q]+log10Ka where Ka is the binding constant and n the number of binding sites per CpLIP2 molecule.
The results were determined for all flavonols tested at different temperatures from the plots of log10 F0 − F/F versus log10 [Q] and listed in Table 2. The plots show a linear relationship from which the slope equal to n and intercept on y-axis equal to log10 Ka. For the four flavonols, the Ka values increased when the temperatures increased. In addition, the n values were less than 1.0 in all cases and increased according to the temperature. […] Values of the dissociation constant of complexes were deduced from the Stern–Volmer Equation (6) and (7), for which Kd is expressed as the inverse of fa Ksv product. (6) F0/ F0−F= Kd 1/ [Q] +1 (7) Kd= 1/fa Ksv
Thermodynamic parameters were calculated to determine the type of binding forces that contribute in the CpLIP2 lipase–flavonol interactions. […] Both the enthalpy (ΔH) and entropy changes (ΔS) can be estimated from the following van′t Hoff Equation (8):(8) Ln Ka = − ΔH /RT + ΔS /R
The values of Gibbs binding free energy change (ΔG) are calculated from the following Equation (9):(9) ΔG= ΔH − TΔS
To fill up the volume of 300 µL by well, 190 µL of sodium phosphate buffer solution (75 mM, pH 7.0) was added to each well to obtain final concentration at 50 mM. Then, 100 µL of ethanol absolute–water ultrapure (2:8, v/v) solution was added to obtain a final amount of ethanol […] in the well of 300 µL. […] The final concentration of ethanol during the experiments never exceeded 0.07% (v/v). The last step was to add 10 µL of lipase after to have optimized the final concentration of CpLIP2 equal to 2.5 µM for all our assays, giving the optimal fluorescence intensity for all measurements. The measurement of intrinsic fluorescence started after mechanical shaking for 30 s inside the multi-plate reader. […]

CpLIP2 lipase, sequence (Q8NIN8 entry or part of it): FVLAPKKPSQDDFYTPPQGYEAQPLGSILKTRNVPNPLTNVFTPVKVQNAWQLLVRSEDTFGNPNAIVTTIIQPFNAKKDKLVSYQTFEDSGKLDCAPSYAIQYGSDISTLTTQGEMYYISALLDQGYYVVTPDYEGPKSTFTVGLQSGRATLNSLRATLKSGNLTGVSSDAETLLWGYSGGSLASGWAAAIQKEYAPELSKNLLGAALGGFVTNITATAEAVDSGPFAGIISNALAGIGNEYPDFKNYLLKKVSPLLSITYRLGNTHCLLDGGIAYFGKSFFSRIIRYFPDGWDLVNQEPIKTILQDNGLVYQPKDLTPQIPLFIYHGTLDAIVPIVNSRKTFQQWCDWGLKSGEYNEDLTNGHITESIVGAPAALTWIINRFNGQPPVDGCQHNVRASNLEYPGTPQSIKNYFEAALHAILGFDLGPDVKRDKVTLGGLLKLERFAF

SMILES	log10 P of partition between octanol and water phases [1]	Ka (association constant) ([2]; 298 K) [L/mol]	n (number of binding sites) ([2]; 298 K)	KSV (Stern–Volmer quenching constant) ([2]; 298 K)	Kq (bimolecular quenching constant) ([2]; 298 K) [L/mol/s]	KSV (accessible), Stern–Volmer quenching constant of the exposed W residues ([2]; 298 K) [L/mol]	fa (fraction of accessible W residues to the quencher) ([2]; 298 K)	ΔG (free energy change) ([2]; 298 K) [kJ/mol]	Ka (association constant) ([2]; 308 K) [L/mol]	n (number of binding sites) ([2]; 308 K)	KSV (Stern–Volmer quenching constant) ([2]; 308 K)	Kq (bimolecular quenching constant) ([2]; 308 K) [L/mol/s]	KSV (accessible), Stern–Volmer quenching constant of the exposed W residues ([2]; 308 K) [L/mol]	fa (fraction of accessible W residues to the quencher) ([2]; 308 K)	ΔG (free energy change) ([2]; 308 K) [kJ/mol]	Ka (association constant) ([2]; 318 K) [L/mol]	n (number of binding sites) ([2]; 318 K)	KSV (Stern–Volmer quenching constant) ([2]; 318 K)	Kq (bimolecular quenching constant) ([2]; 318 K) [L/mol/s]	KSV (accessible), Stern–Volmer quenching constant of the exposed W residues ([2]; 318 K) [L/mol]	also measured
O=c1c(O)c(-c2cc(O)c(O)c(O)c2)oc2cc(O)cc(O)c12 [MYR, myricetin]	2.1	45.21 ± 1	0.43 ± 0.02	1.6 ± 0.1 × 10^4 L·mol^−1	1e+13	290000	0.34	-26.2	53.09 ± 2	0.46 ± 0.03	1.3 ± 0.5 × 10^4 L·mol^−1	8.2e+12	280000	0.32	-27.0	44.79 ± 1	0.44 ± 0.02	1.2 ± 0.4 × 10^4 L·mol^−1	7.7e+12	320000	fa (fraction of accessible W residues to the quencher) ([2]; 318 K): 0.30; ΔG (free energy change) ([2]; 318 K): -27.9 kJ/mol; Ka (association constant) ([2]; 328 K): 97.14 ± 2 L/mol; n (number of binding sites) ([2]; 328 K): 0.51 ± 0.09; KSV (Stern–Volmer quenching constant) ([2]; 328 K): 1.4 ± 0.5 × 10^4 L·mol^−1; Kq (bimolecular quenching constant) ([2]; 328 K): 9e+12 L/mol/s; KSV (accessible), Stern–Volmer quenching constant of the exposed W residues ([2]; 328 K): 250000 L/mol; fa (fraction of accessible W residues to the quencher) ([2]; 328 K): 0.33; ΔG (free energy change) ([2]; 328 K): -28.8 kJ/mol; Kd ([2]; 298 K): 10 ± 1 µM; Kd ([2]; 308 K): 11 ± 4 µM; Kd ([2]; 318 K): 10 ± 4 µM; Kd ([2]; 328 K): 12 ± 7 µM; fa (fraction of accessible W residues) ([2]; across temperatures): 0.33; n (number of binding sites) ([2]; across temperatures): 0.43; order of magnitude of Kq [2]: ~10^13 L mol^−1 s^−1; ΔS (entropy changes) [2]: 0.10 kJ·mol^−1·K^−1
O=c1c(O)c(-c2ccc(O)c(O)c2)oc2cc(O)cc(O)c12 [QUE, quercetin]	2.9	2034 ± 2	0.78 ± 0.06	1.8 ± 0.1 × 10^4 L·mol^−1	1.1e+13	70000	0.54	-42.3	1824 ± 9	0.77 ± 0.05	1.6 ± 0.6 × 10^4 L·mol^−1	1e+13	80000	0.52	-43.4	3041 ± 2	0.81 ± 0.07	1.6 ± 0.6 × 10^4 L·mol^−1	1e+13	70000	fa (fraction of accessible W residues to the quencher) ([2]; 318 K): 0.55; ΔG (free energy change) ([2]; 318 K): -45.2 kJ/mol; Ka (association constant) ([2]; 328 K): 4616 ± 3 L/mol; n (number of binding sites) ([2]; 328 K): 0.85 ± 0.11; KSV (Stern–Volmer quenching constant) ([2]; 328 K): 2.0 ± 0.7 × 10^4 L·mol^−1; Kq (bimolecular quenching constant) ([2]; 328 K): 1.3e+13 L/mol/s; KSV (accessible), Stern–Volmer quenching constant of the exposed W residues ([2]; 328 K): 50000 L/mol; fa (fraction of accessible W residues to the quencher) ([2]; 328 K): 0.69; ΔG (free energy change) ([2]; 328 K): -46.6 kJ/mol; Kd ([2]; 298 K): 27 ± 6 µM; Kd ([2]; 308 K): 24 ± 10 µM; Kd ([2]; 318 K): 25 ± 10 µM; Kd ([2]; 328 K): 31 ± 13 µM; fa (fraction of accessible W residues) ([2]; across temperatures): 0.55; order of magnitude of Kq [2]: ~10^13 L mol^−1 s^−1; ΔS (entropy changes) [2]: 0.14 kJ·mol^−1·K^−1
O=c1c(O)c(-c2ccccc2)oc2cc(O)cc(O)c12 [GAL, galangin]	3.9	323 ± 8	0.58 ± 0.18	2.9 ± 0.1 × 10^4 L·mol^−1	1.8e+13	360000	0.37	-84.6	502 ± 10	0.63 ± 0.21	2.4 ± 0.9 × 10^4 L·mol^−1	1.5e+13	360000	0.34	-87.5	616 ± 10	0.66 ± 0.21	2.1 ± 0.8 × 10^4 L·mol^−1	1.3e+13	290000	log10D (octanol/water at pH 7.4) ([1]; pH 7.4): 0.7; fa (fraction of accessible W residues to the quencher) ([2]; 318 K): 0.33; ΔG (free energy change) ([2]; 318 K): -90.3 kJ/mol; n (number of binding sites) ([2]; 328 K): 0.66 ± 0.04; KSV (Stern–Volmer quenching constant) ([2]; 328 K): 1.5 ± 0.6 × 10^4 L·mol^−1; Kq (bimolecular quenching constant) ([2]; 328 K): 1e+13 L/mol/s; KSV (accessible), Stern–Volmer quenching constant of the exposed W residues ([2]; 328 K): 420000 L/mol; fa (fraction of accessible W residues to the quencher) ([2]; 328 K): 0.25; ΔG (free energy change) ([2]; 328 K): -93.1 kJ/mol; Kd ([2]; 298 K): 8 ± 3 µM; Kd ([2]; 308 K): 8 ± 4 µM; Kd ([2]; 318 K): 11 ± 6 µM; Kd ([2]; 328 K): 10 ± 6 µM; order of magnitude of Kq [2]: ~10^13 L mol^−1 s^−1; ΔS (entropy changes) [2]: 0.28 kJ·mol^−1·K^−1
